In EP4752152A1, “STEROID COMPOUND, AND PREPARATION METHOD THEREFOR AND USE THEREOF” (Cholesgen (Shanghai) Co.Ltd., priority 2023, dated 2025):
pIC50: −log10 of the molar value. Converted amounts (≈) assume the structure as drawn. Where two headings read alike, the source gives them in different places.

Columns and labels:
SREBP pathway = assay: SREBP luciferase reporter gene system (SRE-luciferase assay); type: cell-based, human; conditions: Huh-7/SRE-luc cells, sterol-deficient medium, 0.01-10 µM
How it was run: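 Readout was SRE-driven luciferase normalised to GFP fluorescence in lysates of stably transfected Huh-7/SRE-luc hepatoma cells. Compounds (0.01, 0.03, 0.1, 0.3, 1.0, 3.0, 10 µM; DMSO control) were applied for 16 h in sterol-depleted medium with 2 µM lovastatin and 10 µM mevalonate; IC50 from variable-slope fit.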

[1] = system: Fatty Acid Synthase (FASN) gene; assay: Inhibition of FASN gene expression (qPCR) in Huh-7 cells; type: cell-based, human; conditions: Huh-7 cells, starvation medium, 16 hours, qPCR, class symbols, read-out: FASN IC50
How it was run: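 IC50 derived by four-parameter fit of FASN expression inhibition versus DMSO, measured by RT-qPCR. Compound exposure lasted 16 h at five 3-fold concentrations from 3000 nM, applied to Huh-7 cells in sterol-depleting medium with 5% LPDS, 2 µM lovastatin and 10 µM mevalonate.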

[2] = Metabolic stability experiment of mouse liver microsomes; type: in vitro ADME
Method: PB solution (100 mM), MgCl2 solution (300 mM), NADPH solution (2.04 mM), and mouse liver microsome (SHQY catalog number: M1000, batch number: 2110330) solution (1.00 mg/mL) were prepared respectively. […] Then, 100 µL of mouse liver microsome solution was added to a 96-well sample plate. For the 0 min sample, acetonitrile solution containing the internal standard was first added; then, 2 µL of 100 µM working solution was added; followed by the addition of 98 µL of pre-warmed 2.04 mM NADPH at 37°C. For the 5 min, 15 min, 30 min, 45 min, and 60 min samples, 2 µL of 100 µM working solution was first added; followed by the addition of 98 µL of pre-warmed 2.04 mM NADPH at 37°C to initiate the reaction; upon reaching the respective time points, a solution of acetonitrile containing the internal standard was added to terminate the reaction. For the NCF60 sample, 2 µL of 100 µM working solution was first added; followed by the addition of 98 µL of pre-warmed PB at 37°C to initiate the reaction; upon reaching the respective time points, a solution of acetonitrile containing the internal standard was added to terminate the reaction. During the experiment, all samples were incubated in a 37°C water bath. All samples were shaken on an oscillator at 800 rpm for 10 min, then centrifuged at 3200 g for 20 min. The supernatant was aspirated, diluted with deionized water at the corresponding ratio, and analyzed by LC-MS/MS. The remaining percentage of the compound at each time point was obtained by dividing the peak area ratio of the compound at 5, 15, 30, 45, and 60 min by the peak area ratio at 0 min. The half-life (T1/2) of the compound was then calculated using Excel. Table 2: Mouse liver microsome stability results of compounds from some examples

[3] = Solubility in fasted-state simulated intestinal fluid (FaSSIF); type: physicochemical; conditions: FaSSIF, pH 6.5, fassif, kinetic from dmso stock, FaSSIF pH 6.5, 300 µM sample solution, room temperature
Method: Compound powder was dissolved in DMSO to prepare a 10.0 mM stock solution for later use. 0.021 g NaOH, 0.198 g NaH2PO4, and 0.309 g NaCl were weighed and added to 50.0 mL of ultrapure water. After thorough mixing, the pH was adjusted to 6.5 using HCl or NaOH. Then, 0.112 g of FaSSIF powder was added. After complete dissolution, the solution was allowed to stand at room temperature for 2 hours for later use. A certain volume of the compound stock solution was added to a certain volume of FaSSIF to prepare a 300 µM sample solution, which was mixed at room temperature under 1000 rpm for 1 hour. After 1 hour, the sample was centrifuged, and a certain volume of supernatant was taken. The termination solution was added to precipitate the sample, which was then thoroughly mixed and centrifuged for 20 minutes. The supernatant was then taken again, diluted with dilution solution, and then analyzed by liquid chromatography-tandem mass spectrometry (LC-MS/MS). The concentration of the test compound in the samples was quantitatively determined using LC-MS/MS. Table 3: FaSSIF solubility results of compounds from some examples

Question: Which IC50 (SREBP pathway; Homo sapiens, Huh-7, 16 h) does the source give for `C[C@H](CCCC(O)c1cccc(OC(F)(F)F)c1)[C@H]1CC[C@H]2[C@H]3[C@H](CC[C@]12C)[C@@]1(C)CC[C@H](O)[C@H](O)[C@@H]1CC3(F)F` (stereo partly drawn) [Compound 84, (1R,3aS,3bS,5aR,6R,7S,9aR,9bS,11aR)-4,4-difluoro-1-[(2R)-6-hydroxy-6-{3-[(trifluoromethyl)oxy]phenyl}hexan-2-yl]-9a,11a-dimethylhexadecahydro-1H-cyclopenta[1,2-a]phenanthrene-6,7-diol] here?
Answer: 0.204 µM

Question: What about the pIC50 ([1]; Homo sapiens, Huh-7, 16 h) of the same compound?
Answer: 6.30 to 6.70

Question: What about the half-life at 1 µM [2] of the same compound?
Answer: > 3.08 h

Question: For `C[C@H](CCC1CC(N)C1)[C@H]1CC[C@H]2[C@@H]3CC[C@H]4C[C@@H](O)CC[C@]4(C)[C@H]3CC[C@]12C` (stereo partly drawn) [Compound 136, (20R)-20-[2-(3-aminocyclobutyl)ethyl]-5α-pregnan-3β-ol], which half-life at 1 µM [2] is on record?
Answer: 1.6 h

Question: Which IC50 (SREBP pathway; Homo sapiens, Huh-7, 16 h) does the source give for `COc1cccc(C(O)CCC[C@@H](C)[C@H]2CC[C@H]3C4=C(F)C[C@H]5[C@@H](O)[C@@H](O)CC[C@]5(C)[C@H]4CC[C@]23C)c1F` (stereo partly drawn) [Compound 64, (1R,3aR,5aR,6R,7S,9aR,9bR,11aR)-4-fluoro-1-[(2R)-6-(2-fluoro-3-methoxyphenyl)-6-hydroxyhexan-2-yl]-9a,11a-dimethyl-2,3,3a,5,5a,6,7,8,9,9a,9b,10,11,11a-tetradecahydro-1H-cyclopenta[1,2-a]phenanthrene-6,7-diol] here?
Answer: 0.318 µM

Question: What about the pIC50 ([1]; Homo sapiens, Huh-7, 16 h) of the same compound?
Answer: > 6.70

Question: What about the half-life at 1 µM [2] of the same compound?
Answer: 1.16 h

Question: Which results are given for `COc1c(F)cccc1C(O)CCC[C@@H](C)[C@H]1CC[C@H]2[C@@H]3CC[C@H]4[C@@H](O)[C@@H](O)CC[C@]4(C)[C@H]3CC[C@]12C` (stereo partly drawn) [Compound 7, 24-[(3-Fluoro-2-methoxyphenyl)(hydroxy)methyl]-5α-cholane-3β,4β-diol]?
Answer: IC50 (SREBP pathway; Homo sapiens, Huh-7, 16 h): 0.07 µM; pIC50 ([1]; Homo sapiens, Huh-7, 16 h): 6.30 to 6.70; half-life at 1 µM [2]: 0.624 h

Question: With `COc1cccc([C@@H](O)CCC[C@@H](C)[C@H]2CC[C@H]3[C@H]4[C@H](CC[C@]23C)[C@@]2(C)CC[C@H](O)[C@H](O)[C@@H]2CC4(F)F)c1OC` [Compound 70, (1R,3aS,3bS,5aR,6R,7S,9aR,9bS,11aR)-1-[(2R,6S)-6-(2,3-dimethoxyphenyl)-6-hydroxyhexan-2-yl]-4,4-difluoro-9a,11a-dimethylhexadecahydro-1H-cyclopenta[1,2-a]phenanthrene-6,7-diol] as the compound, how does the IC50 (SREBP pathway; Homo sapiens, Huh-7, 16 h) read?
Answer: 0.211 µM

Question: What about the pIC50 ([1]; Homo sapiens, Huh-7, 16 h) of the same compound?
Answer: > 6.70

Question: And the half-life at 1 µM [2]?
Answer: 0.581 h

Question: Which IC50 (SREBP pathway; Homo sapiens, Huh-7, 16 h) does the source give for `COc1cccc(F)c1C(O)CCC[C@@H](C)[C@H]1CC[C@H]2[C@@H]3CC[C@H]4[C@@H](O)[C@@H](O)CC[C@]4(C)[C@H]3CC[C@]12C` (stereo partly drawn) [Compound 20, 24-[(2-Fluoro-6-methoxyphenyl)(hydroxy)methyl]-5α-cholane-3β,4β-diol] here?
Answer: 0.23 µM

Question: What about the half-life at 1 µM [2] of the same compound?
Answer: 0.498 h

Question: With `C[C@H](CCCC(O)c1cccc2c1OC(F)(F)O2)[C@H]1CC[C@H]2[C@H]3[C@H](CC[C@]12C)[C@@]1(C)CC[C@H](O)[C@H](O)[C@@H]1CC3(F)F` (single isomer, unassigned) [Compound 195, (1R,3aS,3bS,5aR,6R,7S,9aR,9bS,11aR)-1-[(2R,6R)-6-(2,2-difluorobenzo[d][1,3]dioxol-4-yl)-6-hydroxyhexan-2-yl]-4,4-difluoro-9a,11a-dimethylhexadecahydro-1H-cyclopenta[1,2-a]phenanthrene-6,7-diol or (1R,3aS,3bS,5aR,6R,7S,9aR,9bS,11aR)-1-[(2R,6S)-6-(2,2-difluorobenzo[d][1,3]dioxol-4-yl)-6-hydroxyhexan-2-yl]-4,4-difluoro-9a,11a-dimethylhexadecahydro-1H-cyclopenta[1,2-a]phenanthrene-6,7-diol] as the compound, how does the IC50 (SREBP pathway; 16 hours) read?
Answer: 0.067 µM

Question: What about the pIC50 [1] of the same compound?
Answer: > 6.70

Question: What about the solubility at 1 h [3] of the same compound?
Answer: 244 µM (≈ 143 µg/mL)

Question: Which results are given for `COc1nc(F)ccc1C(O)CCC[C@@H](C)[C@H]1CC[C@H]2[C@H]3[C@H](CC[C@]12C)[C@@]1(C)CC[C@H](O)[C@H](O)[C@@H]1CC3(F)F` (single isomer, unassigned) [Compound 188, (1R,3aS,3bS,5aR,6R,7S,9aR,9bS,11aR)-4,4-difluoro-1-[(2R,6S)-6-(6-fluoro-2-methoxypyridin-3-yl)-6-hydroxyhexan-2-yl]-9a,11a-dimethylhexadecahydro-1H-cyclopenta[1,2-a]phenanthrene-6,7-diol or (1R,3aS,3bS,5aR,6R,7S,9aR,9bS,11aR)-4,4-difluoro-1-[(2R,6R)-6-(6-fluoro-2-methoxypyridin-3-yl)-6-hydroxyhexan-2-yl]-9a,11a-dimethylhexadecahydro-1H-cyclopenta[1,2-a]phenanthrene-6,7-diol]?
Answer: IC50 (SREBP pathway; 16 hours): 0.142 µM; pIC50 ([1]; Homo sapiens, Huh-7, 16 h): > 6.70; solubility at 1 h [3]: 139 µM (≈ 76.9 µg/mL)

Question: What does the source list for `COc1cccc(F)c1C(O)CC[C@@H](C)[C@H]1CC[C@H]2[C@H]3[C@H](CC[C@]12C)[C@@]1(C)CC[C@H](O)[C@H](O)[C@@H]1CC3(F)F` (stereo partly drawn) [Compound 333, (1R,3aS,3bS,5aR,6R,7S,9aR,9bS,11aR)-4,4-difluoro-1-[(2R)-5-(2-fluoro-6-methoxyphenyl)-5-hydroxypentan-2-yl]-9a,11a-dimethylhexadecahydro-1H-cyclopenta[1,2-a]phenanthrene-6,7-diol]?
Answer: IC50 (SREBP pathway; Homo sapiens, Huh-7, 16 h): 0.118 µM; pIC50 ([1]; Homo sapiens, Huh-7, 16 h): 6.30 to 6.70; solubility at 1 h [3]: 148 µM (≈ 79.7 µg/mL)

Question: What does the source list for `COc1cc(F)ccc1C(O)CCC[C@@H](C)[C@H]1CC[C@H]2C3=C(F)C[C@H]4[C@@H](O)[C@@H](O)CC[C@]4(C)[C@H]3CC[C@]12C` (stereo partly drawn) [Compound 36, (1R,3aR,5aR,6R,7S,9aR,9bR,11aR)-4-fluoro-1-[(2R)-6-(4-fluoro-2-methoxyphenyl)-6-hydroxyhexan-2-yl]-9a,11a-dimethyl-2,3,3a,5,5a,6,7,8,9,9a,9b,10,11,11a-tetradecahydro-1H-cyclopenta[1,2-a]phenanthrene-6,7-diol]?
Answer: IC50 (SREBP pathway; Homo sapiens, Huh-7, 16 h): 0.2 µM; half-life at 1 µM [2]: > 3.1 h

Question: Which IC50 (SREBP pathway; Homo sapiens, Huh-7, 16 h) does the source give for `COc1cc(F)nc(OC)c1[C@@H](O)CCC[C@@H](C)[C@H]1CC[C@H]2[C@H]3[C@H](CC[C@]12C)[C@@]1(C)CC[C@H](O)[C@H](O)[C@@H]1CC3(F)F` (single isomer, unassigned) [Compound 263] here?
Answer: 0.032 µM

Question: And the pIC50 ([1]; Homo sapiens, Huh-7, 16 h)?
Answer: > 6.70

Question: And the solubility at 1 h [3]?
Answer: 63 µM (≈ 36.8 µg/mL)

Question: With `COc1nccc(F)c1C(O)CCC[C@@H](C)[C@H]1CC[C@H]2[C@H]3[C@H](CC[C@]12C)[C@@]1(C)CC[C@H](O)[C@H](O)[C@@H]1CC3(F)F` (stereo partly drawn) [Compound 126, (1R,3aS,3bS,5aR,6R,7S,9aR,9bS,11aR)-4,4-difluoro-1-[(2R)-6-(4-fluoro-2-methoxypyridin-3-yl)-6-hydroxyhexan-2-yl]-9a,11a-dimethylhexadecahydro-1H-cyclopenta[1,2-a]phenanthrene-6,7-diol] as the compound, how does the IC50 (SREBP pathway; Homo sapiens, Huh-7, 16 h) read?
Answer: 0.153 µM

Question: What about the half-life at 1 µM [2] of the same compound?
Answer: 1.79 h

Question: With `C[C@H](CCCC(O)c1cccc2c1nnn2C)[C@H]1CC[C@H]2[C@H]3[C@H](CC[C@]12C)[C@@]1(C)CC[C@H](O)[C@H](O)[C@@H]1CC3(F)F` (stereo partly drawn) [Compound 272, (1R,3aS,3bS,5aR,6R,7 S,9aR,9bS,11aR)-4,4-Difluoro-1-[(2R)-6-hydroxy-6-(1-methylbenzo[d][1,2,3]triazol-4-yl)hexan-2-yl]-9a,11a-dimethylhexadecahyd ro-1H-cyclopenta[1,2-a]phenanthrene-6,7-diol] as the compound, how does the IC50 (SREBP pathway; Homo sapiens, Huh-7, 16 h) read?
Answer: 0.116 µM

Question: And the pIC50 ([1]; Homo sapiens, Huh-7, 16 h)?
Answer: > 6.70

Question: What about the solubility at 1 h [3] of the same compound?
Answer: 225 µM (≈ 126 µg/mL)

Question: With `COc1cc(F)nc(F)c1[C@@H](O)CCC[C@@H](C)[C@H]1CC[C@H]2[C@H]3[C@H](CC[C@]12C)[C@@]1(C)CC[C@H](O)[C@H](O)[C@@H]1CC3(F)F` (single isomer, unassigned) [Compound 234] as the compound, how does the IC50 (SREBP pathway; Homo sapiens, Huh-7, 16 h) read?
Answer: 0.029 µM

Question: What about the pIC50 ([1]; Homo sapiens, Huh-7, 16 h) of the same compound?
Answer: > 6.70

Question: What about the solubility at 1 h [3] of the same compound?
Answer: 49.3 µM (≈ 28.2 µg/mL)
